Source: ChEMBL document CHEMBL4622867, “An efficient synthetic approach toward a sporadic heterocyclic scaffold: 1,3-Oxathiol-2-ylidenes; alkaline phosphatase inhibition and molecular docking studies” (Bioorg Med Chem Lett, 2020)

What was measured:
[1] = Inhibition of bovine kidney TNAP; design: species or system Bos taurus
HeLa = test: Antiproliferative activity against human HeLa cells assessed as inhibition of cell growth by MTT assay relative to control; format: functional
Bos taurus [2] = species on record: Bos taurus; test: Inhibition of calf intestinal alkaline phosphatase relative to control; design: concentration or dose not given beside the values; conditions: concentration not given here
[3] = Inhibition of calf intestinal alkaline phosphatase; design: species or system Bos taurus
Bos taurus [4] = species on record: Bos taurus; test: Inhibition of bovine kidney TNAP relative to control; design: concentration or dose not given beside the values; conditions: concentration not given here

| SMILES | IC50 [1] | inhibition (Bos taurus [2]) | IC50 [3] | inhibition (Bos taurus [4]) | growth inhibition (GI) (HeLa) |
| --- | --- | --- | --- | --- | --- |
| CCOC(=O)c1s/c(=N\C(=O)c2ccc([N+](=O)[O-])cc2)oc1C | 370 nM | 40.4% | – | – | 21.53% |
| CCOC(=O)c1s/c(=N\C(=O)c2ccccc2Cl)oc1C | 30400 nM | 45.3% | – | – | 51.53% |
| CCOC(=O)c1s/c(=N\C(=O)c2cccc(C)c2)oc1C | – | 28.9% | – | 30.9% | 33.07% |
| CCOC(=O)c1s/c(=N\C(=O)c2ccccc2C)oc1C | – | 19.5% | – | 28.8% | 9.8% |
| CCOC(=O)c1s/c(=N\C(=O)c2cccc(Cl)c2)oc1C | – | – | 2900 nM | 45.3% | 8.07% |
| CCOC(=O)c1s/c(=N\C(=O)c2ccccc2)oc1C | – | 30.4% | – | 39.1% | 69.03% |

Second part, led by results:

| IC50 [1] | inhibition (Bos taurus [2]) | IC50 [3] | inhibition (Bos taurus [4]) | SMILES | growth inhibition (GI) (HeLa) |
| --- | --- | --- | --- | --- | --- |
| 19200 nM | – | – | – | c1ccc([C@H]2CN3CCSC3=N2)cc1 [LEVAMISOLE] | – |
| 6510 nM | – | 1160 nM | – | CCOC(=O)c1s/c(=N\C(=O)c2cccc(Br)c2)oc1C | 4.61% |
| – | 36.5% | – | 47.1% | CCOC(=O)c1s/c(=N\C(=O)c2cc(OC)c(OC)c(OC)c2)oc1C | 58.07% |
| – | 25.3% | – | 41.4% | CCOC(=O)c1s/c(=N\C(=O)Cc2ccccc2)oc1C | 4.15% |
| 2410 nM | – | 670 nM | – | CCOC(=O)c1s/c(=N\C(=O)CCCc2ccccc2)oc1C | 3.96% |
| – | 33.1% | – | 45.7% | CCOC(=O)c1s/c(=N\C(=O)c2ccco2)oc1C | 42.11% |
| – | 27.9% | – | 48.3% | CCOC(=O)c1s/c(=N\C(=O)c2ccc(Cl)cc2)oc1C | – |
| – | – | 80200 nM | – | N[C@@H](Cc1ccccc1)C(=O)O [PHENYLALANINE] | – |
| – | 35.4% | – | 44.5% | CCOC(=O)c1s/c(=N\C(=O)c2ccccc2[N+](=O)[O-])oc1C | 2.42% |
